Experimental data: PMC9229165, “In Vitro Anticancer Activity Screening of Novel Fused Thiophene Derivatives as VEGFR-2/AKT Dual Inhibitors and Apoptosis Inducers” (Pharmaceuticals, 2022)
Where “and” joins values, the source holds several entries; their conditions need not be identical. Identical values can stand only once. Like-named read-outs stand apart in the source and are kept apart here.

Experiments:
HepG2 cells [1] = assay: MTT antiproliferative assay on HepG2; format: cell-based; conditions: mean ± S.D. (n = 3), read-out: Cytotoxicity in IC50, HepG2
Experimental: (§1) The antiproliferative activity of the thiophene compounds 3a–g, 4a–c, 6a, and 7a–d was evaluated by an in vitro MTT colorimetric assay on two oncogenic cell lines: liver (HepG2) and prostate (PC-3).
(§2) All cell lines (HepG2, PC-3, and nontumorigenic WI38) were supplied from VACSERA (Cairo, Egypt), cultured in DMEM (Invitrogen/Life Technologies, Waltham, MA, USA) at a density of 1.2–1.8 × 10,000 cells/well in a volume of 100 µL of the growth medium, and then incubated for 24 h, and an MTT assay was done as reported by.

PC-3 cells = assay: MTT antiproliferative assay on PC-3; format: cell-based; conditions: mean ± S.D. (n = 3), read-out: Cytotoxicity in IC50, PC-3
Experimental: as §1, §2

[2] = MTT assay on normal nononcogenic cell line WI38; format: cell-based; conditions: human, WI38 cells (normal nononcogenic cell line); MTT assay; noncancerous cell line; mean ± S.D. (n = 3); read-out: Cytotoxicity in IC50, WI38
Experimental: (§3) The aforementioned results illustrate that compounds 3b and 4c are the most promising cytotoxic agents on both cell lines and will be subjected to a thorough mechanistic study to understand their anticancer activity. However, before doing this, their selective toxicity and, thus, their safety were evaluated by measuring the IC50 values against the normal nononcogenic cell line (Wl38) by an MTT assay as listed in Table 1. […] Compound 3b gave SI of 6, and compound 4c gave SI = 12 showing better selectivity toward cancer cells than doxorubicin with SI = 5.
as §2

WI38 cells = assay: MTT assay on normal nononcogenic cell line WI38; format: cell-based; conditions: calculated by dividing the IC50 of WI38/PC-3, SI > 2 is considered safe
Experimental: as §3, §2

VEGFR-2 [3] = biological target: T1, VEGFR-2 (Homo sapiens, UniProt P35968); assay: VEGFR-2 phosphorylation cell-based ELISA in HepG2 cells; conditions: compounds at their formerly determined IC50
Experimental: VEGFR-2 phosphorylation was assayed using VEGFR2 Antibody (Phospho-Tyr951) (OAEC00085, AVIVA SYSTEM BIOLOGY) [53], while Akt-1 was assayed by Mouse/Human/Rat Phospho-AKT1 (Ser473) (Cell-Based Phosphorylation ELISA) ELISA Kit-LS-F1447 (LSBio) according to manufacturer’s instructions [54].

AKT-1 [4] = biological target: T2, AKT-1 (Homo sapiens, UniProt P31749); assay: Akt kinase activity assay kit on cell lysate; format: biochemical; conditions: LY2780301 as reference
Text: (§5) The outcomes were expressed as IC50 values (mean standard deviation) calculated from the dose–response curves and their linear regression equations.

HepG2 cells [5] = assay: Flow cytometric cell cycle analysis; format: cell-based; conditions: HepG2, 48 h, at IC50
Experimental: AKT-1 is known for its downstream activation of several proteins involved in cell proliferation and apoptosis evasion. In addition, it is reported to be involved in G1–S checkpoint transition and proliferation.
(§4) Analyzing the DNA content in the cell cycle phases by flow cytometry was conducted using FACSCalibur (Becton Dickinson, Franklin Lakes, NJ, USA) following the manufacturer’s manual. The cell cycle analysis procedures were as reported by on HepG2 cells after their treatment with the most promising derivatives for 48 h. Further assessment of the proapoptotic effect was determined by the Annexin V-FITC/PI apoptosis detection kit (Catalog # K101-25, BD Biosciences, San Diego, CA, USA).

HepG2 cells [6] = assay: Annexin V-FITC/PI apoptosis detection; format: cell-based; conditions: HepG2, 48 h
Experimental: Annexin V/PI staining with flow cytometric analysis was adapted to measure early and late apoptotic cells and necrotic cells as presented in Table 3 and Figure 6.
as §4

caspase-3 = assay: Active caspase-3 ELISA in HepG2 cells; format: cell-based, human
Experimental: Apoptosis is known to be carried out through three different pathways: intrinsic, extrinsic, and granzyme pathways. One of the controlling proteins in apoptosis is the cysteine protease named caspase with the chief executer caspase 3 [46, 47]. Accordingly, assessing the effect of 3b and 4c on the active caspase-3 level was done in HepG2 cells taking doxorubicin as the reference drug.
The colorimetric ELISA assay for active caspase-3 detection was carried out utilizing Invitrogen™ Caspase-3 (Cleaved) Human ELISA-Kit (KHO1091, CA, USA) according to the manufacturer’s procedures. ROBONIK P2000 ELISA reader was used at 450 nm, and the standard curve was obtained by plotting the mean absorbance of each standard concentration against human caspase-3 concentrations.

VEGFR-2 [7] = biological target: T1, VEGFR-2; assay: VEGFR2 (KDR) kinase assay kit; format: biochemical; design: purchased BPS Bioscience 40325; conditions: read-out: VEGFR-2 kinase inhibitory activity IC50
Text: as §5

AKT-1 [8] = biological target: T2, AKT-1; assay: Phospho-AKT1 (Ser473) cell-based phosphorylation ELISA in HepG2 cells; design: endogenous in cells; host or cells: HepG2
Experimental: To investigate the success of the design strategy developed in this work, the effect of the promising candidates 3b and 4c was assessed on AKT-1, a crucial protein, by determining their phosphorylation inhibition rate in HepG2 cells and measuring their biochemical kinase inhibitory activity.
VEGFR-2 phosphorylation was assayed using VEGFR2 Antibody (Phospho-Tyr951) (OAEC00085, AVIVA SYSTEM BIOLOGY), while Akt-1 was assayed by Mouse/Human/Rat Phospho-AKT1 (Ser473) (Cell-Based Phosphorylation ELISA) ELISA Kit-LS-F1447 (LSBio) according to manufacturer’s instructions.

T2 sequence (P31749 whole entry): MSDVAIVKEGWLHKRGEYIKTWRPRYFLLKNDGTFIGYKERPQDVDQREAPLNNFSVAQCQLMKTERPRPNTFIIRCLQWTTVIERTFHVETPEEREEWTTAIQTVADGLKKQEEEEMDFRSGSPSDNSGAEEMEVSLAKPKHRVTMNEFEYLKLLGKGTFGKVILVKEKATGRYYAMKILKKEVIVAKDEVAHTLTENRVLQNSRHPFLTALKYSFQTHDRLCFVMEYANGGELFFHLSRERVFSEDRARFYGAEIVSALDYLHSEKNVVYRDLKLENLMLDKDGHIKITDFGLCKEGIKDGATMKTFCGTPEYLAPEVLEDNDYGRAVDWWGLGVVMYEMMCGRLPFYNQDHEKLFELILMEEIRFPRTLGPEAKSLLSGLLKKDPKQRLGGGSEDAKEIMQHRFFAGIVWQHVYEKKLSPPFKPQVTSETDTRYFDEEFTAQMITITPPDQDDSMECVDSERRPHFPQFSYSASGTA
T1 sequence (P35968 20-1356): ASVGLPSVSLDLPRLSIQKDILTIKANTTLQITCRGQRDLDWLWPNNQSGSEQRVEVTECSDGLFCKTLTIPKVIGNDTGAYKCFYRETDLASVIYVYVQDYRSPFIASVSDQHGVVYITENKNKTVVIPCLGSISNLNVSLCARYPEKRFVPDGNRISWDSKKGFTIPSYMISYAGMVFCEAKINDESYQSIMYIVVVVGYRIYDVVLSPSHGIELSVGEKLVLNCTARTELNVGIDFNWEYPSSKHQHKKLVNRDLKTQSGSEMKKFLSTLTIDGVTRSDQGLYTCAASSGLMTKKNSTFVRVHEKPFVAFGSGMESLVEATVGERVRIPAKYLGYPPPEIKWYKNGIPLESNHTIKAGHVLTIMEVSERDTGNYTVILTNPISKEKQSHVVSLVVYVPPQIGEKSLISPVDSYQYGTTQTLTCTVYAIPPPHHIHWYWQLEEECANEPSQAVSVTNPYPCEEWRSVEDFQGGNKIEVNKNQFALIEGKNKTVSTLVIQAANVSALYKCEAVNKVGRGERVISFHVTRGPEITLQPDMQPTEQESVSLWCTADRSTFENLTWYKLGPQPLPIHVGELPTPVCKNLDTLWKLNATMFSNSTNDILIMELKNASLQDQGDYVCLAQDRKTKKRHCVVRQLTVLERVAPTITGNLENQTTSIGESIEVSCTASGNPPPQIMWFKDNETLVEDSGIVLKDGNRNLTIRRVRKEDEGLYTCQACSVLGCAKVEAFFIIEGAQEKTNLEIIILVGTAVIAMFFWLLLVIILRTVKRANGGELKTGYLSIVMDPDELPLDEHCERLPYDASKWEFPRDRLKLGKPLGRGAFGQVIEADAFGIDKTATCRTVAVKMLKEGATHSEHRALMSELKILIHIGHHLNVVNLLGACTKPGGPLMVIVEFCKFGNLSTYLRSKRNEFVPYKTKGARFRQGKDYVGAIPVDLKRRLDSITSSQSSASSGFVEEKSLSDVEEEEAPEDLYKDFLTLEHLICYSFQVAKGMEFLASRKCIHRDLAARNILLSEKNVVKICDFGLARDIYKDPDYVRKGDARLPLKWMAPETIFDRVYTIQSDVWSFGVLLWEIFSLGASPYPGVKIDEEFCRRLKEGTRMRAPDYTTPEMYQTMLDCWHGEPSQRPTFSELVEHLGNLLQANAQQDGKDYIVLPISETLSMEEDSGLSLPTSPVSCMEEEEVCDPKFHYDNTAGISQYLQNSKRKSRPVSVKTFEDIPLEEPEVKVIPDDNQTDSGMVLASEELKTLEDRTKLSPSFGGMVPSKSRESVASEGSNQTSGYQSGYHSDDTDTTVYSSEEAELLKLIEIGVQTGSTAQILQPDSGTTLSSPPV

Row | Structure (SMILES) | IC50 (HepG2 cells [1]; Homo sapiens, HepG2, MTT assay) [µM] | IC50 (PC-3 cells; Homo sapiens, PC-3, MTT assay) [µM] | melting point [°C] | other results
1 | CCOC(=O)c1c(/N=C(/Nc2cc(C)ccc2Cl)SCC(=O)Nc2ccc(Cl)cc2)sc2c1N(C)CC2 [7a, Ethyl (Z)-2-((((2-chloro-5-methylphenyl)amino)((2-((4-chlorophenyl)amino)-2-oxoethyl)thio)methylene)amino)-4-methyl-5,6-dihydro-4H-thieno[3,2-b]pyrrole-3-carboxylate] | 27.3 ± 1.26 | 81.1 ± 4.54 | 82 to 83 | 
2 | COc1ccc(-c2nc3sc4c(c3c(=O)[nH]2)N(C)CC4)cc1 [3f, 2-(4-Methoxyphenyl)-5-methyl-3,5,6,7-tetrahydro-4H-pyrrolo[2′,3′:4,5]thieno[2,3-d]pyrimidin-4-one] | 4.3 ± 0.2 | 7.47 ± 0.42 | 117 to 118 | IC50 (HepG2 cells [1]; MTT assay): 4.3 ± 0.2 µM; IC50 (PC-3 cells; MTT assay): 7.47 ± 0.42 µM
3 | CN1CCc2sc3nc(-c4ccc(F)cc4)[nH]c(=O)c3c21 [3d, 2-(4-Fluorophenyl)-5-methyl-3,5,6,7-tetrahydro-4H-pyrrolo[2′,3′:4,5]thieno[2,3-d]pyrimidin-4-one] | 13.4 ± 0.62 | 19 ± 1.06 | 108 to 110 | 
4 | CCOC(=O)c1c(/N=C(/Nc2cc(C)ccc2Cl)SCC(=O)Nc2ccc(Br)cc2)sc2c1N(C)CC2 [7b, Ethyl (Z)-2-((((2-((4-bromophenyl)amino)-2-oxoethyl)thio)((2-chloro-5-methylphenyl)amino)methylene)amino)-4-methyl-5,6-dihydro-4H-thieno[3,2-b]pyrrole-3-carboxylate] | 2.48 ± 0.11 | 26.6 ± 1.49 | > 250 | 
5 | CCOC(=O)c1c(NC(=S)Nc2cc(C)ccc2Cl)sc2c1N(C)CC2 [4c, Ethyl 2-(3-(2-chloro-5-methylphenyl)thioureido)-4-methyl-5,6-dihydro-4H-thieno[3,2-b]pyrrole-3-carboxylate] | 3.02 | 3.12 ± 0.17 |  | IC50 (HepG2 cells [1]; MTT assay): 3.02 ± 0.14 µM; IC50 [2]: 35.3 ± 1.92 µM; Selectivity Index (SI) (WI38 cells): 12 and 11.68; VEGFR-2 phosphorylation inhibition (VEGFR-2 [3]): 70%; IC50 (AKT-1 [4]): 4.6 µM; % Content of DNA, G0:G1 (HepG2 cells [5]): 53.28%; % Content of DNA, G2:M (HepG2 cells [5]): 1.48%; % Content of DNA, PreG1 (HepG2 cells [5]): 29.81%; % Content of DNA, S (HepG2 cells [5]): 45.24%; Increase in early apoptotic cells over untreated cells (HepG2 cells [6]): 7 fold; Increase in late apoptotic cells over untreated cells (HepG2 cells [6]): 97 fold; Apoptosis, Total (cells percentage) (HepG2 cells [6]; at IC50): 29.81%; Apoptosis, Early (cells percentage) (HepG2 cells [6]; at IC50, Q2 in Figure 6): 3.85%; Apoptosis, Late (cells percentage) (HepG2 cells [6]; at IC50, Q3 in Figure 6): 16.55%; Necrosis (cells percentage) (HepG2 cells [6]; at IC50, Q4 in Figure 6): 9.41%; Increase in active caspase-3 level over the untreated cells (caspase-3): six-fold; IC50 (VEGFR-2 [7]): 0.075 µM; AKT-1 phosphorylation inhibition rate (AKT-1 [8]): 71.6%
6 | CN1CCc2sc3nc(-c4ccc(Br)cc4)[nH]c(=O)c3c21 [3c, 2-(4-Bromophenyl)-5-methyl-3,5,6,7-tetrahydro-4H-pyrrolo[2′,3′:4,5]thieno[2,3-d]pyrimidin-4-one] | 107 ± 4.94 | 10.5 ± 0.59 | 113 to 114 | 
7 | COc1cccc2c1C(=O)c1c(O)c3c(c(O)c1C2=O)C[C@@](O)(C(=O)CO)C[C@@H]3O[C@H]1C[C@H](N)[C@H](O)[C@H](C)O1 [Doxorubicin, reference compound] | 2.09 ± 0.1 | 2.53 ± 0.14 |  | IC50 [2]: 9.84 ± 0.54 µM; Selectivity Index (SI) (WI38 cells): 4.69; Selectivity Index (SI) (WI38 cells; listed as doxorubicin): 5; Increase in active caspase-3 level over the untreated cells (caspase-3): seven-fold
8 | Cc1ccc(-c2nc3sc4c(c3c(=O)[nH]2)N(C)CC4)cc1 [3e, 5-Methyl-2-(p-tolyl)-3,5,6,7-tetrahydro-4H-pyrrolo[2′,3′:4,5]thieno[2,3-d]pyrimidin-4-one] | 22.4 ± 1.03 | 39.7 ± 2.22 | 155 to 156 | 
9 | CCOC(=O)c1c(/N=C(/NC)SCC(=O)Nc2ccc(Cl)cc2)sc2c1N(C)CC2 [6a, Ethyl (Z)-2-((((2-((4-chlorophenyl)amino)-2-oxoethyl)thio)(methylamino)methylene)amino)-4-methyl-5,6-dihydro-4H-thieno[3,2-b]pyrrole-3-carboxylate] | 9.8 ± 0.45 | 0.5 ± 0.03 | 140 to 141 | 
10 | CCOC(=O)c1c(NC(=S)NC)sc2c1N(C)CC2 [4a, Ethyl 4-methyl-2-(3-methylthioureido)-5,6-dihydro-4H-thieno[3,2-b]pyrrole-3-carboxylate] | 41.1 ± 1.9 | 1.84 ± 0.1 | 132 to 134 | 
11 | CCNC(=S)Nc1sc2c(c1C(=O)OCC)N(C)CC2 [4b, Ethyl 2-(3-ethylthioureido)-4-methyl-5,6-dihydro-4H-thieno[3,2-b]pyrrole-3-carboxylate] | 34.2 ± 1.58 | 19.3 ± 1.08 | 135 to 136 | 
12 | CCOC(=O)c1c(/N=C(/Nc2cc(C)ccc2Cl)SCC(=O)Nc2ccc(C)cc2)sc2c1N(C)CC2 [7d, Ethyl (Z)-2-((((2-chloro-5-methylphenyl)amino)((2-oxo-2-(p-tolylamino)ethyl)thio)methylene)amino)-4-methyl-5,6-dihydro-4H-thieno[3,2-b]pyrrole-3-carboxylate] | 8.91 ± 0.41 | 6.35 ± 0.36 | 118 to 120 | 
13 | COc1cc(-c2nc3sc4c(c3c(=O)[nH]2)N(C)CC4)cc(OC)c1OC [3g, 5-Methyl-2-(3,4,5-trimethoxyphenyl)-3,5,6,7-tetrahydro-4H-pyrrolo[2′,3′:4,5]thieno[2,3-d]pyrimidin-4-one] | 3.77 ± 0.17 | 20.5 ± 1.15 |  | 
14 | CCOC(=O)c1c(/N=C(/Nc2cc(C)ccc2Cl)SCC(=O)Nc2ccc(OC)cc2)sc2c1N(C)CC2 [7c, Ethyl (Z)-2-((((2-chloro-5-methylphenyl)amino)((2-((4-methoxyphenyl)amino)-2-oxoethyl)thio)methylene)amino)-4-methyl-5,6-dihydro-4H-thieno[3,2-b]pyrrole-3-carboxylate] | 39.6 ± 1.83 | 9.72 ± 0.54 | 110 to 112 | 
15 | CN1CCc2sc3nc(-c4ccccc4)[nH]c(=O)c3c21 [3a, 5-Methyl-2-phenyl-3,5,6,7-tetrahydro-4H-pyrrolo[2′,3′:4,5]thieno[2,3-d]pyrimidin-4-one] | 7.96 ± 0.37 | 29.6 ± 1.66 | > 250 | 
16 | CN(C)CCn1cc(-c2ccc(F)c(C(F)(F)F)c2)nc1C1CCN(c2ncnc3c2CC(=O)N3)CC1 [LY2780301, reference compound] |  |  |  | IC50 (AKT-1 [4]): 4.62 µM; AKT-1 phosphorylation inhibition rate (AKT-1 [8]): 68.6%
